This note sets out measurements from patent publication EP2706985B1 (Acerus Biopharma Inc., priority 2011, dated 2012).

The nature of the data set: Example 11 Period 2: multiple-dose pharmacokinetics (free and total testosterone, dihydrotestosterone, estradiol, SHBG). Conditions: multi-dose, PK conclusions.

As to `C[C@]12CC[C@H]3[C@@H](CCC4=CC(=O)CC[C@@]43C)[C@@H]1CC[C@@H]2O` [Testosterone, 17β-Hydroxyandrost-4-en-3-one], the “time to return to baseline” value fell in the range of 12 to 15 h.
